Measured values as given in US20240376154A1, “BIS-INTERCALATING PEPTIDES, CONJUGATES AND METHODS OF USE” (ZYMEWORKS BC INC., priority 2023, published 2024).

Key:
[1] = system: herring sperm DNA; experiment: DNA melting temperature by differential scanning calorimetry (DSC); format: binding; details: for DNA melt (° C.): DSC, herring sperm DNA, DNA melting temperature = 68° C.
Method: Representative compounds prepared as described in Example 2 were assessed in two complementary DNA-binding assays. Increased melting temperature of herring sperm DNA was measured using differential scanning calorimetry (DSC) and binding kinetics were determined by surface plasmon resonance (SPR) using a short DNA hairpin sequence.
DSC experiments were conducted as described in Leng, 2003, Nucleic Acids Res., 31 (21): […], using a Nano DSC (TA Instruments, New Castle, DE) and analyzed using the NanoAnalyze™ software package. Herring sperm DNA solution (Invitrogen 15634017, 10 mg/mL) was diluted to 1 mg/mL (1.4 mM base pair) in BPE buffer (6 mM Na2HPO4, 2 mM NaH2PO4, 1 mM Na4EDTA, pH 7.0). Test articles (20 μL, 10 mM in DMSO) were added and allowed reach equilibrium binding (>3 h), any insoluble material was removed by low-speed centrifugation, then samples were heated from 25 to 110° C. at a scan rate of 1° C./min. Melting curves were plotted and melting temperature was determined using NanoAnalyze™.

[2] = Lipophilicity by experimental HPLC retention time; format: physicochemical; details: HPLC retention time as measure of lipophilicity; C18, 10 to 90% CH3CN/H2O with 0.1% FA over 25 min
Method: The ability to kill neighboring cells (i.e. bystander effect) is an important property for ADC payloads. For a payload comprising a compound of Formula I to be capable of bystander killing, membrane permeability (or transport) is required and the ability of compounds of Formula I to cross cell membranes and exert a cytotoxic effect was expected to be heavily influenced by lipophilicity.
Compounds were analyzed using an Agilent 1260 HPLC (Agilent Technologies, Inc., Santa Clara, CA) equipped with a Diode array detector and using a Phenomenex Kinetex EVO C18 150×4.6, 2.6 μm column (Phenomenex, Torrance, CA), eluting with 10 to 90% CH3CN/H2O with 0.1% FA over 25 min.

[3] = system: tumour cells (at least 4 of a panel of ovarian, breast, lung, pancreatic, placenta, colon cell lines); experiment: In vitro cytotoxicity (cell proliferation, CellTiter-Glo), average over tumour cell line panel; format: cell-based; details: average pIC50 on all cell lines tested; 5 nights incubation; CellTiter-Glo
Method: The ability of representative compounds of Formula I to inhibit proliferation of tumour cells in vitro was evaluated in at least 4 of the following cell lines: OVCAR-3 (ovarian, ATCC), SKOV-3 (ovarian, ATCC), IGROV-1 (ovarian, national research council of Canada (NRC)), OV-90 (ovarian, ATCC), OVKATE (Ovarian, Japanese Collection of Research Bioresources (JCRB) (JCRB1044)), JIMT-1 (breast, NRC), SK-BR-3 (breast, ATCC), T-47D (breast, ATCC), ZR-75-1 (breast, ATCC), MDA-MB-468 (breast, AddexBio), BT-20 (breast, ATCC), BT-474 (breast, NRC), MDA-MB-175 (breast, AddexBio), A549 (lung, collaborator), NCI-H226 (lung, NRC), NCI-H661 (lung, NRC), NCI-H1573 (lung, ATCC). NCI-H1563 (lung, ATCC), H358 (lung, collaborator), EBC-1 (lung, Xenotech), H1299 (lung, NRC), NCI-H292 (lung, ATCC), HCC817 (lung, ATCC), NCI-H441 (lung, ATCC), MIA-PaCa-2 (pancreatic, ATCC), BxPC-3 (pancreatic, ATCC), Panc-1 (pancreatic, ATCC), AsPC-1 (pancreatic, ATCC), JEG-3 (placenta, AddexBio), HT-29 (colon, ATCC).
Cells were cultured per vendor instructions and in log-phase growth were detached by brief incubation in 0.05% trypsin, then resuspended in respective culturing media at 20,000 cells/mL (except for ZR-75 cells, which were resuspended at 10,000 cells/mL). 50 μL/well (˜1000 cells/well) were transferred to sterile tissue culture (TC)-treated 384-well plates (ThermoFisher Scientific, Catalogue #164610) and incubated overnight at 37° C. with 5% CO2 to allow the cells to adhere to the plate surface. The next day, in a sterile, V-bottom, 96-well plate, test articles were titrated 1:3 in complete growth medium, creating a 10-point dose response titration with compounds at 3.5-times the desired final concentration. 20 μL from each dilution were added to the 384-well plate containing the seeded cells and these plates were incubated at 37° C. with 5% CO2 for 5 nights. Cell viability was quantified by first incubating with 15 μL/well of CellTiter-Glo® (Promega, Catalogue #G7572) for 30 minutes, then measuring luminescence with a microplate luminometer (BioTek® Synergy™ H1 Microplate Reader). IC50 values were determined by GraphPad Prism (GraphPad Software, San Diego, CA).
The results are presented in Table 7.1 and discussed in Example 7. Table 7.1 presents the results as average pIC50 values. pIC50=−log (IC50), thus, for example, pIC50=9 is equivalent to IC50=1 nM, and pIC50=6 is equivalent to IC50=1 μM.

Compound | DNA melt (° C.) [1] | HPLC [2] | pIC50 (average) [3] | DNA binding (in words) ([1]; only DSC data in Table 7.1)
CN1CC(=O)N2CCCC[C@H]2C(=O)NC[C@@H](NC(=O)c2nc3ccccc3cc2O)C(=O)N2CCCC[C@H]2C(=O)NCC(=O)N(C)CC(=O)N2CCCC[C@H]2C(=O)NC[C@@H](NC(=O)c2nc3ccccc3cc2O)C(=O)N2CCCC[C@H]2C(=O)NCC1=O [Compound 49, N,N′-((7R,10aS,22aS,29R,32aS,44aS)-18,40-dimethyl-6,10,16,19,22,28,32,38,41,44-decaoxotetratetracontahydrotetrapyrido[1,2-a:1′,2′-j:1″,2″-q:1″,2′″-z][1,4,7,10,13,17,20,23,26,29]decaazacyclodotriacontine-7,29-diyl)bis(3-hydroxyquinoline-2-carboxamide)] | 97 °C | 15.7 min | 7.2 | –
CC(C)[C@H]1C(=O)N(C)C[C@@H](NC(=O)c2nc3ccccc3cc2O)C(=O)N2CCCC[C@H]2C(=O)NCC(=O)N(C)CC(=O)N(C)[C@@H](C(C)C)C(=O)N(C)C[C@@H](NC(=O)c2nc3ccccc3cc2O)C(=O)N2CCCC[C@H]2C(=O)NCC(=O)N(C)CC(=O)N1C [Compound 42, N,N′-((7R,11S,19aS,26R,30S,38aS)-11,30-diisopropyl-9,12,15,28,31,34-hexamethyl-6,10,13,16,19,25,29,32,35,38-decaoxohexatriacontahydro-2H,6H-dipyrido[1,2-a:1′,2′-q][1,4,7,10,13,17,20,23,26,29]decaazacyclodotriacontine-7,26-diyl)bis(3-hydroxyquinoline-2-carboxamide)] | 88 °C | 17.7 min | 7.3 | –
CC(C)[C@H]1C(=O)NC[C@@H](NC(=O)c2nc3ccccc3cc2O)C(=O)N2CCCC[C@H]2C(=O)NCC(=O)N(C)CC(=O)N(C)[C@@H]([C@@H](C)O)C(=O)NC[C@@H](NC(=O)c2nc3ccccc3cc2O)C(=O)N2CCCC[C@H]2C(=O)NCC(=O)N(C)CC(=O)N1C [Compound 55, N,N′-((7R,11S,19aS,26R,30S,38aS)-11-((R)-1-hydroxyethyl)-30-isopropyl-12,15,31,34-tetramethyl-6,10,13,16,19,25,29,32,35,38-decaoxohexatriacontahydro-2H,6H-dipyrido[1,2-a:1′,2′-q][1,4,7,10,13,17,20,23,26,29]decaazacyclodotriacontine-7,26-diyl)bis(3-hydroxyquinoline-2-carboxamide)] | 86 °C | 10.6 min | inactive | –
CC(C)[C@H]1C(=O)NC[C@@H](NC(=O)c2nc3ccccc3cc2O)C(=O)N2CCCC[C@H]2C(=O)NCC(=O)N(C)CC(=O)N2CCC[C@H]2C(=O)NC[C@@H](NC(=O)c2nc3ccccc3cc2O)C(=O)N2CCCC[C@H]2C(=O)NCC(=O)N(C)CC(=O)N1C [Compound 77] | 88 °C | 15.0 min | 6.9 | –
CC(C)[C@H]1COC[C@@H](NC(=O)c2nc3ccccc3cc2O)C(=O)N2CCCC[C@H]2C(=O)NCC(=O)N(C)CC(=O)N(C)[C@@H](C(C)C)COC[C@@H](NC(=O)c2nc3ccccc3cc2O)C(=O)N2CCCC[C@H]2C(=O)NCC(=O)N(C)CC(=O)N1C [Compound 172, N,N′-((7R,11S,19aS,26R,30S,38aS)-11,30-diisopropyl-12,15,31,34-tetramethyl-6,13,16,19,25,32,35,38-octaoxodotriacontahydro-2H,6H,10H,25H-dipyrido[2,1-b1: 2′,1′-l][1,17]dioxa[4,7,10,13,20,23,26,29]octaazacyclodotriacontine-7,26-diyl)bis(3-hydroxyquinoline-2-carboxamide)] | 91 °C | 18.2 min | 7.9 | –
CC(C)[C@H]1C(=O)NC[C@@H](NC(=O)c2nc3ccccc3cc2O)C(=O)N2CCCC[C@H]2C(=O)NCC(=O)N(C)CC(=O)N(C)[C@@H](C2CCCCC2)C(=O)NC[C@@H](NC(=O)c2nc3ccccc3cc2O)C(=O)N2CCCC[C@H]2C(=O)NCC(=O)N(C)CC(=O)N1C [Compound 97, N,N′-((7R,11S,19aS,26R,30S,38aS)-11-cyclohexyl-30-isopropyl-12,15,31,34-tetramethyl-6,10,13,16,19,25,29,32,35,38-decaoxohexatriacontahydro-2H,6H-dipyrido[1,2-a:1′,2′-q][1,4,7,10,13,17,20,23,26,29]decaazacyclodotriacontine-7,26-diyl)bis(3-hydroxyquinoline-2-carboxamide)] | 86 °C | 18.9 min | 8.4 | –
CC(C)[C@H]1C(=O)NC[C@@H](NC(=O)c2nc3ccccc3cc2O)C(=O)N2CCCC[C@H]2C(=O)NCCOCC(=O)N(C)[C@@H](C(C)C)C(=O)NC[C@@H](NC(=O)c2nc3ccccc3cc2O)C(=O)N2CCCC[C@H]2C(=O)NCCOCC(=O)N1C [Compound 404, N,N′-((7R,11S,19aS,26R,30S,38aS)-11,30-diisopropyl-12,31-dimethyl-6,10,13,19,25,29,32,38-octaoxodotriacontahydro-2H,6H,16H,25H-dipyrido[1,2-a1: 1′,2′-k][1,17]dioxa[4,7,11,14,20,23,27,30]octaazacyclodotriacontine-7,26-diyl)bis(3-hydroxyquinoline-2-carboxamide)] | 68^1 °C | 16.0 min | Inactive | did not demonstrate measurable DNA binding
CC(C)[C@H]1C(=O)NC[C@@H](NC(=O)c2nc3ccccc3cc2O)C(=O)N2CCCC[C@H]2C(=O)NCC(=O)N(C)CC(=O)N(C)[C@@H](C(C)C)C(=O)NC[C@@H](NC(=O)c2nc3ccccc3cc2O)C(=O)N2CCCC[C@H]2C(=O)NCC(=O)N(C)CC(=O)N1C [Compound 35, N,N′-((7R,11S,19aS,26R,30S,38aS)-11,30-diisopropyl-12,15,31,34-tetramethyl-6,10,13,16,19,25,29,32,35,38-decaoxohexatriacontahydro-2H,6H-dipyrido[1,2-a:1′,2′-q][1,4,7,10,13,17,20,23,26,29]decaazacyclodotriacontine-7,26-diyl)bis(3-hydroxyquinoline-2-carboxamide)] | 88 °C | 17.1 min | 7.3 | –
CC[C@H](C)[C@H]1C(=O)NC[C@@H](NC(=O)c2nc3ccccc3cc2O)C(=O)N2CCCC[C@H]2C(=O)NCC(=O)N(C)CC(=O)N(C)[C@@H](C(C)C)C(=O)NC[C@@H](NC(=O)c2nc3ccccc3cc2O)C(=O)N2CCCC[C@H]2C(=O)NCC(=O)N(C)CC(=O)N1C [Compound 72] | 89 °C | 18.0 min | 7.6 | –
